Read-outs that look alike come from different tables or passages of the source.
Experiments:
Assay in all cases: Kinase selectivity, DiscoverX scanMAX Kinase assay panel (% control)
Assay type in all cases: binding
[1] = target: T1, kinases of the scanMAX Kinase assay panel (Homo sapiens, UniProt Q86UX6); settings: kinase YANK3; 1 uM in DMSO
T1 construct: purchased DiscoverX Co. (contract measurement) scanMAX Kinase assay panel
Summary of the method: (§1)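 Each enzyme is treated with drug at 1 uM in DMSO, then signal is scaled between a positive control (0%) and DMSO (100%) to give % control. Kinases with % control under 35% are scored as inhibited.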

[2] = target: T2, kinases of the scanMAX Kinase assay panel (Homo sapiens, UniProt Q8WU08); settings: kinase YANK1; 1 uM in DMSO
T2 construct: purchased DiscoverX Co. (contract measurement) scanMAX Kinase assay panel
T2 sequence (Q8WU08 whole entry): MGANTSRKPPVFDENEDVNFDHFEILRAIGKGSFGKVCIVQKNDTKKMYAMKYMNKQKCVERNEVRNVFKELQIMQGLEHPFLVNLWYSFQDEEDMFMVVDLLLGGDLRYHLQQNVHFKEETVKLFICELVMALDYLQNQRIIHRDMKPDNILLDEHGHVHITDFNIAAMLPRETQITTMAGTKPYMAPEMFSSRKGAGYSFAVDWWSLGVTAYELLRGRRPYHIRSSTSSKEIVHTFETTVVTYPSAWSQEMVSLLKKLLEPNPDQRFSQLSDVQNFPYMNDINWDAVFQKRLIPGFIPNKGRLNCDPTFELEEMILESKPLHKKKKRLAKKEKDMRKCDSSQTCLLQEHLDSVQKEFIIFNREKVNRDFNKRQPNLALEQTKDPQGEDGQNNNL
Summary of the method: as §1

[3] = target: T3, kinases of the scanMAX Kinase assay panel (Homo sapiens, UniProt Q32MK0); settings: MLCK; 1 uM
T3 construct: purchased DiscoverX Co. (contract measurement) scanMAX Kinase assay panel
T3 sequence (Q32MK0 1-819): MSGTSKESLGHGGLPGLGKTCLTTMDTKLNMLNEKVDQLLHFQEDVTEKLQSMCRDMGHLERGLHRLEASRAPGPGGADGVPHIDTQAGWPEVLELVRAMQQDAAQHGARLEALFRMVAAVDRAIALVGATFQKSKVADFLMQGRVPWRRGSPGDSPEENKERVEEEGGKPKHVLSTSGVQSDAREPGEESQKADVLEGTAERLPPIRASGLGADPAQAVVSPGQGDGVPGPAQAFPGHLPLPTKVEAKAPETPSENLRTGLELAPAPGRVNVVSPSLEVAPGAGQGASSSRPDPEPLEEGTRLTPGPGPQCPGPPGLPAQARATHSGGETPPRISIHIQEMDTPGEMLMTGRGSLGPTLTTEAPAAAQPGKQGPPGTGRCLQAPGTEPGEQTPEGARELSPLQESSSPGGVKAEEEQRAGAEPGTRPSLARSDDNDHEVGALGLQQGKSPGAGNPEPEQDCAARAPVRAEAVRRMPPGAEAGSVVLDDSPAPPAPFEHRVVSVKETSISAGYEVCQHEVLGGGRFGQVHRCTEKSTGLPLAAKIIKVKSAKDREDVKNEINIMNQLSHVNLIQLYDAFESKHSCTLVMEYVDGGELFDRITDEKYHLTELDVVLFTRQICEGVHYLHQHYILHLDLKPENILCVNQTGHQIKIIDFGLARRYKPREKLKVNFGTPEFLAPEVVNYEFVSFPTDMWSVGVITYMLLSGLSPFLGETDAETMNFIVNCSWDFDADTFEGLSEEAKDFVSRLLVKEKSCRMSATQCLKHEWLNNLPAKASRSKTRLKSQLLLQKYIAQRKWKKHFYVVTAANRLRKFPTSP
Summary of the method: as §1

[4] = target: T4, kinases of the scanMAX Kinase assay panel (Homo sapiens, UniProt Q15349); settings: 1 uM in DMSO
T4 construct: purchased DiscoverX Co. (contract measurement) scanMAX Kinase assay panel
T4 sequence (Q15349 whole entry): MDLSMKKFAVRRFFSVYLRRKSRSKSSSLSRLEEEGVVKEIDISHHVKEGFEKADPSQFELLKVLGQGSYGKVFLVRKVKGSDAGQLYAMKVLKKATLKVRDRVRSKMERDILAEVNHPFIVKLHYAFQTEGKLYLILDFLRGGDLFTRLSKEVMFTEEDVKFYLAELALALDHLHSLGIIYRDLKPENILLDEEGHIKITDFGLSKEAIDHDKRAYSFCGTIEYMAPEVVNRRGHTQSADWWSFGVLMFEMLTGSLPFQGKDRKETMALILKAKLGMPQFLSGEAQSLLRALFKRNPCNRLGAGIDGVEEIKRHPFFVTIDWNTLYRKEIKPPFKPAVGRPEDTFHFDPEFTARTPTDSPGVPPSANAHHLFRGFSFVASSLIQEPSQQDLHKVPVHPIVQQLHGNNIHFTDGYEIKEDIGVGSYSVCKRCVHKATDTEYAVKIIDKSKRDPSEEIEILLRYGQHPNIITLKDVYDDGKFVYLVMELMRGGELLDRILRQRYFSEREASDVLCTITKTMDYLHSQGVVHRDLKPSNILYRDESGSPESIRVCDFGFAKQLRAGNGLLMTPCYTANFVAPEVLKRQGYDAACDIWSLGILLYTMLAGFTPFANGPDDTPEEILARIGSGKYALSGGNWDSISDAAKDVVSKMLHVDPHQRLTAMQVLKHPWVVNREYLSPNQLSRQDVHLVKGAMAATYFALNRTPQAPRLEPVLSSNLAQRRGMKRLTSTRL
Summary of the method: as §1

[5] = target: T5, kinases of the scanMAX Kinase assay panel (Homo sapiens, UniProt P31152); settings: ERK4; 1 uM
T5 construct: purchased DiscoverX Co. (contract measurement) scanMAX Kinase assay panel
T5 sequence (P31152 whole entry): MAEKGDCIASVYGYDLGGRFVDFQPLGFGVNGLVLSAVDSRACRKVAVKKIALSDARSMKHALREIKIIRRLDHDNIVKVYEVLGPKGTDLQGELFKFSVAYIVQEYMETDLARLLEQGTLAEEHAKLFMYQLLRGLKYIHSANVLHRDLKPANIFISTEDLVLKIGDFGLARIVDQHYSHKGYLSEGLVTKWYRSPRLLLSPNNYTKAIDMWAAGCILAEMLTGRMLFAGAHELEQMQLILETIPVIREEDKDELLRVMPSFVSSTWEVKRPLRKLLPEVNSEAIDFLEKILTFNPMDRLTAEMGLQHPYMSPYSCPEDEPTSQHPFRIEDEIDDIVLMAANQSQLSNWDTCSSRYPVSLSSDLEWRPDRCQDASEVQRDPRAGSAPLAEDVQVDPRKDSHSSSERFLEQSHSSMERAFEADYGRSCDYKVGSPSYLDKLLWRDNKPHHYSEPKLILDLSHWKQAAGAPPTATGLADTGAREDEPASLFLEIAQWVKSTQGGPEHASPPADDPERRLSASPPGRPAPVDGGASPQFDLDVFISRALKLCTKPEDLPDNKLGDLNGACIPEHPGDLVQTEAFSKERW
Summary of the method: as §1

[6] = target: T6, kinases of the scanMAX Kinase assay panel (Homo sapiens, UniProt P36894); settings: BMPR1A; 1 uM
T6 construct: purchased DiscoverX Co. (contract measurement) scanMAX Kinase assay panel
T6 sequence (P36894 24-532): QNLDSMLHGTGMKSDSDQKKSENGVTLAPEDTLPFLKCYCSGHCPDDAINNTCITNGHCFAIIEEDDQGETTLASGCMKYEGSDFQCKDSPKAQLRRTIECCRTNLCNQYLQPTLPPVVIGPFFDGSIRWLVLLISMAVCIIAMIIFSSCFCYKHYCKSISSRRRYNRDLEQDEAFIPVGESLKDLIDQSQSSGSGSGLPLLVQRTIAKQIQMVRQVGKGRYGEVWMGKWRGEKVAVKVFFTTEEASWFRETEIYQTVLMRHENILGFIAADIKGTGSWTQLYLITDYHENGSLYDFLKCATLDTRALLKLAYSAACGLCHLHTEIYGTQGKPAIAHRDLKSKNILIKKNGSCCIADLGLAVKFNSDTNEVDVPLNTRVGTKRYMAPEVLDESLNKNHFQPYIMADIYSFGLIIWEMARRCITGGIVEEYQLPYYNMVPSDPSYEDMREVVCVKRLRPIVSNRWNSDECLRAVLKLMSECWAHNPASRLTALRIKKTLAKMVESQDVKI
Summary of the method: as §1

[7] = target: T7, kinases of the scanMAX Kinase assay panel (Homo sapiens, UniProt Q8WXR4); settings: MYO3B; 1 uM
T7 construct: purchased DiscoverX Co. (contract measurement) scanMAX Kinase assay panel
T7 sequence (Q8WXR4 1-1341): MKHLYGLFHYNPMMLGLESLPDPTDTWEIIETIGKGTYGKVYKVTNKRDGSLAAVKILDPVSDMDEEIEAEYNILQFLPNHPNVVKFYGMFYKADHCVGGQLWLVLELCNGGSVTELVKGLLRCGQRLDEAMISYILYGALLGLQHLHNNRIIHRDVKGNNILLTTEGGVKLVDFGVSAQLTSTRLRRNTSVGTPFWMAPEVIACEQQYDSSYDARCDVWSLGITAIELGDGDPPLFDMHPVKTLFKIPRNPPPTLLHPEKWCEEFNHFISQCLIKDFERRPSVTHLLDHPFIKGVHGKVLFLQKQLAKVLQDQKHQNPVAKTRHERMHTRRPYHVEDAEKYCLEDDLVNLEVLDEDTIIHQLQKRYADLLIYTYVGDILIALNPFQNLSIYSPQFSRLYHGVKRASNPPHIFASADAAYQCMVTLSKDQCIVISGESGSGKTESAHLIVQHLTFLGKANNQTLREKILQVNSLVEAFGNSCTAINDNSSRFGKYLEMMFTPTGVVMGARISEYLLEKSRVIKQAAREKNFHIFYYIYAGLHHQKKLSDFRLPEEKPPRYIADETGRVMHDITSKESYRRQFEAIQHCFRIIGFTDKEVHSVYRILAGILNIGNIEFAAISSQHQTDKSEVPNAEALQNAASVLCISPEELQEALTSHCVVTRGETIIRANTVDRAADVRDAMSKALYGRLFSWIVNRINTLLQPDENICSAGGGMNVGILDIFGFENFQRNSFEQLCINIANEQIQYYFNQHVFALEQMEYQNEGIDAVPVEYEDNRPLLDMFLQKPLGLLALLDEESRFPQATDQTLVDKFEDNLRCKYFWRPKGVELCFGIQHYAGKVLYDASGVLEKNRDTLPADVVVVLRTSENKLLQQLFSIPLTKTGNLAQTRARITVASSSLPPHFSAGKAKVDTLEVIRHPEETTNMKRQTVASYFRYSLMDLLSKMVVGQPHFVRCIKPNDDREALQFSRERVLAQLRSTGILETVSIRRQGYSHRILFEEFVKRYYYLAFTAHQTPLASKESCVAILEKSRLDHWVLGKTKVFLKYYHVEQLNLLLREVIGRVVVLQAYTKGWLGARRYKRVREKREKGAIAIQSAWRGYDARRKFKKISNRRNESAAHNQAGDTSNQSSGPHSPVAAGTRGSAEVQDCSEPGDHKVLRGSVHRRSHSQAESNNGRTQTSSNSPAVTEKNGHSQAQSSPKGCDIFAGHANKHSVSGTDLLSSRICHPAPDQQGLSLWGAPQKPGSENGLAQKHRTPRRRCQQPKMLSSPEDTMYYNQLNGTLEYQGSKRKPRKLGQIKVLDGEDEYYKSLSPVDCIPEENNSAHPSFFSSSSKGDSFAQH
Summary of the method: as §1

[8] = kinase RSK3(Kin.Dom.1-N-terminal), read-out: % control, RSK3(Kin.Dom.1-N-terminal)
[9] = kinase RSK3(Kin.Dom.2-C-terminal), read-out: % control, RSK3(Kin.Dom.2-C-terminal)

T1 sequence (Q86UX6 whole entry): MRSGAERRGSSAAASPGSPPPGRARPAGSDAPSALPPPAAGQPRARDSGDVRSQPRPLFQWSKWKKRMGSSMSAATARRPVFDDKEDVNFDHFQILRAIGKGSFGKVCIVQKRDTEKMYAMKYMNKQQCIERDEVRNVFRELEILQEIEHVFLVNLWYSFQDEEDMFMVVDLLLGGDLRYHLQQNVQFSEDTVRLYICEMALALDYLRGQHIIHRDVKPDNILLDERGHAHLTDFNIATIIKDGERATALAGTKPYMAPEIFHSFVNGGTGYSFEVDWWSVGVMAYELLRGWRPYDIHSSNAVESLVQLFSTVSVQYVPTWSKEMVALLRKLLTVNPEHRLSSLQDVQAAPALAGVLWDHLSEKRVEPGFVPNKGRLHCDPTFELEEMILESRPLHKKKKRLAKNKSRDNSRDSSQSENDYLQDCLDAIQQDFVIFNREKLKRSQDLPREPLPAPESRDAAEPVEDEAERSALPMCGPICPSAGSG

Compound | remaining binding at 1 µM [1] [%] | remaining binding at 1 µM [2] [%] | remaining binding at 1 µM [3] [%] | remaining binding at 1 µM [4, 8] [%] | remaining binding at 1 µM [4, 9] [%] | remaining binding at 1 µM [5] [%] | remaining binding at 1 µM [6] [%] | remaining binding at 1 µM [7] [%]
CNc1nc(Nc2ccc(C(=O)N3CCOCC3)cc2OC)nc2[nH]cc(C#N)c12 [Example 1, 2-((2-methoxy-4-(morpholine-4-carbonyl)phenyl)amino)-4-(methylamino)-7H-pyrrolo[2,3-d]pyrimidine-5-carbonitrile] | 100 | 76 | 96 | 90 | 23 | 95 | 94 | 84
CC1(Nc2nc(Nc3cnn([C@H]4CCN(C5COC5)C[C@@H]4F)c3Cl)nc3[nH]cc(C#N)c23)CC1 [Example 52, 2-((5-chloro-1-((3S,4S)-3-fluoro-1-(oxetane-3-yl)piperidine-4-yl)-1H-pyrazole-4-yl)amino)((1-methylcyclopropyl)amino)-7H-pyrrolo[2,3-d]pyrimidine-5-carbonitrile] | 100 | 88 | 9 | 4.3 | 28 | 100 | 100 | 10
CCNc1nc(Nc2ccc(C(=O)N3CCC(N4CCOCC4)CC3)cc2OC)nc2[nH]cc(C(F)(F)F)c12 [Example 104, (4-((4-(ethylamino)-5-(trifluoromethyl)-7H-pyrrolo[2,3-d]pyrimidine-2-yl)amino)-3-methoxyphenyl)(4-morpholinopiperidine-1-yl)methanone] | 65 | 82 | 92 | 100 | 66 | 92 | 100 | 19

Reference: US11208412B2 (DAEGU-GYEONGBUK MEDICAL INNOVATION FOUNDATION, priority 2017, dated 2021)
